US9492450B2, “Inhibition of dynamin related protein 1 to promote cell death” (University of Pittsburgh—of the Commonwealth System of …, priority 2011, dated 2016)

Key:
[1] = test system: Bax/Bak WT and double knockout (DKO) SV40-transformed MEF cells; assay: Apoptosis, ROS and mitochondrial morphology in Bax/Bak MEF cells; type: cell-based, mouse; conditions: cisplatin alone 20 h in DKO cells; combination within 8 h
Protocol: FIG. 24A-E. The combination of cisplatin and mdivi-1 enhances MOMP bypassing Bax/Bak-dependent mechanism. (A) Bax/Bak wild-type (Bax/Bak+/+) and double knockout (Bax/Bak−/−) SV40-transformed MEF cells were treated with cisplatin at indicated concentrations for 20 h. The cleavage of caspase-9 and -3 were detected by western blot. (B, C) Cleavage of caspase-9 and -3 in Bax/Bak wild-type and double knockout MEF cells after combination treatment. (D) Quantification of apoptotic cells by Annexin V and PI after 8 h treatment of combination at 50 μM. (E) Release of cytochrome c from Bax/Bak wild-type and double knockout MEF cells after combination treatment.
FIG. 25A-I. Mdivi-1 causes mitochondrial dysfunction and its combination with cisplatin induces mitochondrial swelling that triggers Bax/Bak-independent MOMP. (A) MDA-MB-231 cells and H1299 cells were treated as indicated for 4 h and subjected to ATP determination. […] (B, C) OCR and ECAR were measured after 4 h treatment of H1299 cells with agents alone or the combination (C/M). […] Mitochondrial membrane potential was determined with TMRM. […] Mitochondrial membrane potential was measured as in D. (F) Bax/Bak double knockout MEF cells were treated as indicated for 2 h, ROS generation was determined with DCF-DA. […] Mitochondrial morphology was analyzed by confocal microscopy. […] Mitochondrial ultrastructure was analyzed by electron microscopy. […]

[2] = test system: H1299 cells; assay: Mitochondrial function: ATP, OCR, ECAR, TMRM membrane potential; type: cell-based, human; conditions: 50 μM, 4 h
Protocol: FIG. 25A-I. Mdivi-1 causes mitochondrial dysfunction and its combination with cisplatin induces mitochondrial swelling that triggers Bax/Bak-independent MOMP. (A) MDA-MB-231 cells and H1299 cells were treated as indicated for 4 h and subjected to ATP determination. […] (B, C) OCR and ECAR were measured after 4 h treatment of H1299 cells with agents alone or the combination (C/M). (D) H1299 cells were treated as indicated for 4 h. Mitochondrial membrane potential was determined with TMRM. (E) Bax/Bak double knockout MEF cells were treated with DMSO or the combination, with or without the presence of 10 μM FCCP for 2 h. Mitochondrial membrane potential was measured as in D. (F) Bax/Bak double knockout MEF cells were treated as indicated for 2 h, ROS generation was determined with DCF-DA. (G) Bax/Bak double knockout MEF cells were pre-incubated with 5 μM MitoSox for 30 min, and then treated as indicated for 2 h followed by flow cytometry. […] Mitochondrial morphology was analyzed by confocal microscopy. […] Mitochondrial ultrastructure was analyzed by electron microscopy. […]
Total cellular ATP content was determined using a luminescent ATP detection kit, ATPlite (PerkinElmer Life Sciences, Boston, Mass.), according to the manufacturer's instruction. The luminescence intensity was measured using a microplate reader, Synergy 2 (BioTek instruments, Winooski, Vt.). […]

Row | SMILES | cleavage of caspase-9 and -3 [1] | extracellular acidification rate (ECAR) [2] | oxygen consumption rate (OCR) / mitochondrial respiration [2]
1 | N.N.[Cl][Pt][Cl] [cisplatin] | absence of cleavage of caspase-9 and -3 | – | –
2 | COc1cc(-n2c(=S)[nH]c3ccccc3c2=O)c(Cl)cc1Cl [mdivi-1] | – | enhanced the extracellular acidification rate | suppressed mitochondrial respiration
